# Experimental data from US20150351380A1, “TISSUE-PRESERVING LIQUID AND TISSUE-PRESERVING METHOD” (OSAKA UNIVERSITY, priority 2012, published 2015).
# System: luciferase transgenic rat-derived oral mucosal cell sheet
# Test: Residual ATP level in luciferase transgenic rat-derived oral mucosal cell sheet after preservation and post-preservation culture
# Assay type: cell-based
# Details: tBHQ in HBSS (1 μM, 10 μM, 100 μM)
# Protocol: An oral tissue of a luciferase transgenic rat (Hakamata Y, Murakami T, Kobayashi E., Transplantation 2006; 81(8): 1179-1184) was provided by Dr. Eiji Kobayashi in the Division of Development of Advanced Treatment, Jichi Medical University. The oral tissue was washed twice with DMEM (Gibco) supplemented with 1% antibiotics and antimycotics (AbAm, Gibco). The washed tissue was immersed in a solution of dispase I (1,000 PU/ml) in DMEM supplemented with 1% AbAm at 4° C. for 4 hours. After the dispase treatment, the tissue was transferred into a 0.02% EDTA solution (nacalai tesque), immersed therein at room temperature for 2 minutes, and washed twice with PBS. […]
# The ATP level in a cell sheet correlates with the viability of the cell sheet. The ATP levels in a cell sheet before preservation, after preservation and after post-preservation culture were measured as an indicator of the viability of the cell sheet. […] After this, the 96-well plate was set in a luminescence microplate reader Centro LB960 (Berthold Technologies GmbH & Co. KG), and according to the device settings of the microplate reader, addition of luciferin (final concentration; 0.19 mg/ml) and measurement of the ATP level were conducted. The measurement temperature was 4° C., the single reading time was 2 seconds, and the total reading time was 12 minutes. […]
smiles,measurement,value
"CC(C)(C)c1cc(O)ccc1O [tBHQ, tert-butylhydroquinone]",residual ATP level after 7 days of preservation compared with HBSS without additive,higher
